This note sets out measurements from patent US20260138976A1 (Hoffmann-La Roche Inc., priority 2022, published 2026).

The test system of this test is primary human T-cells. Put plainly: Proliferation assay (5 days, CellTiter-Glo, CD3-stimulated T-cells). The following applies: for Emax proliferation (% activation): CD3 condition, normalised to DMSO (neutral) and 20 μM reference compound A1 = 100%; for EC50: Homo sapiens, T-cell, 120 h, CD3-stimulated primary human T-cells, 5 days, CellTiter-Glo, fitted sigmoidal curve, read-out: Tcell Proliferation CD3 EC50. The test is classed as cell-based. The essentials:
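Proliferation read-out: ATP luminescence (CellTiter-Glo 2.0) at day 5 in expanded primary human T-cells on CD3 antibody-coated plates, with PBS-only plates as a counter screen. Compounds in 5–6 pt series (factor 3.333, top 20 or 10 μM final). Values are normalized to DMSO (neutral) and 20 μM reference A1 (100%), from sigmoidal fits.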

For the compound `COCCN1CC(c2nnc(-c3ccc4c(c3)N(Cc3ccc(-c5noc(C(F)(F)F)n5)cc3)C(=O)[C@@H](N)CS4(=O)=O)o2)CC(F)(F)C1` (stereo partly drawn) [Example 182, (3R)-3-amino-7-[5-[5,5-difluoro-1-(2-methoxyethyl)-3-piperidyl]-1,3,4-oxadiazol-2-yl]-1,1-dioxo-5-[[4-[5-(trifluoromethyl)-1,2,4-oxadiazol-3-yl]phenyl]methyl]-2,3-dihydro-1λ^6,5-benzothiazepin-4-one], the “Emax proliferation (% activation)” value stood at 175 % activation and the EC50 came out at 1.27 µM.

For the compound `CC(C)(C)c1nnc(-c2ccc3c(c2)N(Cc2ccc(-c4nc(C(F)(F)F)co4)cc2)C(=O)[C@@H](N)CS3(=O)=O)o1` [Example 89, (3R)-3-amino-7-(5-tert-butyl-1,3,4-oxadiazol-2-yl)-1,1-dioxo-5-[[4-[4-(trifluoromethyl)oxazol-2-yl]phenyl]methyl]-2,3-dihydro-1λ^6,5-benzothiazepin-4-one], the “Emax proliferation (% activation)” value was determined as 153 % activation and the EC50 came out at 0.203 µM.

In the case of `Cc1noc(-c2ccc(CN3C(=O)[C@@H](N)CS(=O)(=O)c4cc(F)c(-c5nnc(C(C)(C)C)o5)cc43)cc2)n1` [Example 2], the “Emax proliferation (% activation)” value came out at 143 % activation and the EC50 came to 0.296 µM.

In the case of `N[C@H]1CS(=O)(=O)c2ccc(-c3noc(C4(N)COC4)n3)cc2N(Cc2ccc(-c3noc(C(F)(F)F)n3)cc2)C1=O` [Example 84, (3R)-3-amino-7-[5-(3-aminooxetan-3-yl)-1,2,4-oxadiazol-3-yl]-1,1-dioxo-5-[[4-[5-(trifluoromethyl)-1,2,4-oxadiazol-3-yl]phenyl]methyl]-2,3-dihydro-1lambda6,5-benzothiazepin-4-one], the “Emax proliferation (% activation)” value was 151 % activation and the EC50 came out at 1.75 µM.

For `Cn1ccc(-c2ccc(CN3C(=O)[C@@H](N)CS(=O)(=O)c4cc(F)c(-c5nnc(C(C)(C)C)o5)cc43)cc2)n1` [Example 1, (3R)-3-amino-7-(5-tert-butyl-1,3,4-oxadiazol-2-yl)-8-fluoro-5-[[4-(1-methylpyrazol-3-yl)phenyl]methyl]-1,1-dioxo-2,3-dihydro-1λ^6,5-benzothiazepin-4-one], the “Emax proliferation (% activation)” value is 73 % activation and the EC50 stood at 0.843 µM.

Take `COc1ccc(-c2ccc(CN3C(=O)[C@@H](N)CS(=O)(=O)c4ccc(-c5nnc(N6CCOC(F)(F)C6)o5)cc43)cc2)cc1` [Example 79, (3R)-3-amino-7-[5-(2,2-difluoromorpholin-4-yl)-1,3,4-oxadiazol-2-yl]-5-[[4-(4-methoxyphenyl)phenyl]methyl]-1,1-dioxo-2,3-dihydro-1λ^6,5-benzothiazepin-4-one]: the “Emax proliferation (% activation)” value came to 167 % activation and the EC50 was determined as 0.989 µM.

In the case of `CC(C)(c1nnc(-c2ccc3c(c2)N(Cc2ccc(-c4noc(C5CC5)n4)cc2)C(=O)[C@@H](N)CS3(=O)=O)o1)C(F)(F)F` [Example 167, (3R)-3-amino-5-[[4-(5-cyclopropyl-1,2,4-oxadiazol-3-yl)phenyl]methyl]-1,1-dioxo-7-[5-(2,2,2-trifluoro-1,1-dimethyl-ethyl)-1,3,4-oxadiazol-2-yl]-2,3-dihydro-1λ^6,5-benzothiazepin-4-one], the “Emax proliferation (% activation)” value was found to be 186 % activation and the EC50 came to 0.629 µM.

As for `COc1ccc(-c2ccc(CN3C(=O)[C@@H](N)CS(=O)(=O)c4ccc(-c5nnc(C6(CO)CCCO6)o5)cc43)cc2)cc1` (stereo partly drawn) [Example 63, (3R)-3-amino-7-[5-[2-(hydroxymethyl)tetrahydrofuran-2-yl]-1,3,4-oxadiazol-2-yl]-5-[[4-(4-methoxyphenyl)phenyl]methyl]-1,1-dioxo-2,3-dihydro-1λ^6,5-benzothiazepin-4-one], the “Emax proliferation (% activation)” value was 103 % activation and the EC50 worked out at 1.06 µM.

Regarding `N[C@H]1CS(=O)(=O)c2ccc(-c3nnc(N4CCC(F)(F)CC4)o3)cc2N(Cc2ccc(-c3nnc(C(F)(F)F)o3)cc2)C1=O` [Example 71, (3R)-3-amino-7-[5-(4,4-difluoro-1-piperidyl)-1,3,4-oxadiazol-2-yl]-1,1-dioxo-5-[[4-[5-(trifluoromethyl)-1,3,4-oxadiazol-2-yl]phenyl]methyl]-2,3-dihydro-1λ^6,5-benzothiazepin-4-one], the “Emax proliferation (% activation)” value is reported as 129 % activation and the EC50 stood at 2.87 µM.

In the case of `CC(N)(c1nnc(-c2ccc3c(c2)N(Cc2ccc(-c4noc(CC(F)(F)F)n4)cc2)C(=O)[C@@H](N)CS3(=O)=O)o1)C(F)(F)F` (stereo partly drawn) [Example 33, (3R)-3-amino-7-[5-(1-amino-2,2,2-trifluoro-1-methyl-ethyl)-1,3,4-oxadiazol-2-yl]-1,1-dioxo-5-[[4-[5-(2,2,2-trifluoroethyl)-1,2,4-oxadiazol-3-yl]phenyl]methyl]-2,3-dihydro-1λ^6,5-benzothiazepin-4-one], the “Emax proliferation (% activation)” value is recorded as 105 % activation and the EC50 was determined as 3.19 µM.

For `Cc1noc(-c2ccc(CN3C(=O)[C@@H](N)CS(=O)(=O)c4ccc(-c5nnc(C(C)(C)C)o5)cc43)cc2)n1` [Example 20, (3R)-3-amino-7-(5-tert-butyl-1,3,4-oxadiazol-2-yl)-5-[[4-(3-methyl-1,2,4-oxadiazol-5-yl)phenyl]methyl]-1,1-dioxo-2,3-dihydro-1λ^6,5-benzothiazepin-4-one], the “Emax proliferation (% activation)” value turned out to be 82 % activation and the EC50 is 2.38 µM.

On to `CC(c1nc(-c2ccc(CN3C(=O)[C@@H](N)CS(=O)(=O)c4ccc(-c5nnc(C6(N)CCCCC6)o5)cc43)cc2)no1)C(F)(F)F` (stereo partly drawn) [Example 98, (3R)-3-amino-7-[5-(1-aminocyclohexyl)-1,3,4-oxadiazol-2-yl]-1,1-dioxo-5-[[4-[5-(2,2,2-trifluoro-1-methyl-ethyl)-1,2,4-oxadiazol-3-yl]phenyl]methyl]-2,3-dihydro-1λ^6,5-benzothiazepin-4-one], for which the “Emax proliferation (% activation)” value was 97 % activation and the EC50 was determined as 1.82 µM.

Consider `CC(C)(C#N)c1nnc(-c2ccc3c(c2)N(Cc2ccc(-c4ccc(C(F)(F)F)cc4)cc2)C(=O)[C@@H](N)CS3(=O)=O)o1` [Example 46], for which the “Emax proliferation (% activation)” value is reported as 94 % activation and the EC50 worked out at 0.116 µM.

Regarding `COCC1CN(c2nnc(-c3ccc4c(c3)N(Cc3ccc(-c5noc(C(F)(F)F)n5)cc3)C(=O)[C@@H](N)CS4(=O)=O)o2)CCO1` (stereo partly drawn) [Example 164, (3R)-3-amino-7-[5-[2-(methoxymethyl)morpholin-4-yl]-1,3,4-oxadiazol-2-yl]-1,1-dioxo-5-[[4-[5-(trifluoromethyl)-1,2,4-oxadiazol-3-yl]phenyl]methyl]-2,3-dihydro-1λ^6,5-benzothiazepin-4-one], the “Emax proliferation (% activation)” value turned out to be 86 % activation and the EC50 was determined as 0.39 µM.

In the case of `CC1(c2nnc(-c3ccc4c(c3)N(Cc3ccc(-c5noc(C(F)(F)F)n5)cc3)C(=O)[C@@H](N)CS4(=O)=O)o2)COC1` [Example 149, (3R)-3-amino-7-[5-(3-methyloxetan-3-yl)-1,3,4-oxadiazol-2-yl]-1,1-dioxo-5-[[4-[5-(trifluoromethyl)-1,2,4-oxadiazol-3-yl]phenyl]methyl]-2,3-dihydro-1λ^6,5-benzothiazepin-4-one], the “Emax proliferation (% activation)” value was found to be 118 % activation and the EC50 amounted to 1.21 µM.

`N#CC1CN(c2nnc(-c3ccc4c(c3)N(Cc3ccc(-c5noc(C(F)(F)F)n5)cc3)C(=O)[C@@H](N)CS4(=O)=O)o2)CCO1` (stereo partly drawn) [Example 163, 4-[5-[(3R)-3-amino-1,1,4-trioxo-5-[[4-[5-(trifluoromethyl)-1,2,4-oxadiazol-3-yl]phenyl]methyl]-2,3-dihydro-1λ^6,5-benzothiazepin-7-yl]-1,3,4-oxadiazol-2-yl]morpholine-2-carbonitrile]: the “Emax proliferation (% activation)” value amounted to 106 % activation and the EC50 was 6.44 µM.

With `CC(C)(C)c1nnc(-c2ccc3c(c2)N(Cc2ccc(-n4cc(C(F)(F)F)cn4)cc2)C(=O)[C@@H](N)CS3(=O)=O)o1` [Example 25, (3R)-3-amino-7-(5-tert-butyl-1,3,4-oxadiazol-2-yl)-1,1-dioxo-5-[[4-[4-(trifluoromethyl)pyrazol-1-yl]phenyl]methyl]-2,3-dihydro-1λ^6,5-benzothiazepin-4-one], the “Emax proliferation (% activation)” value is 131 % activation and the EC50 worked out at 2.93 µM.

With `COCCN1CC(c2nnc(-c3ccc4c(c3)N(Cc3ccc(-c5ccc(OC)cc5)cc3)C(=O)[C@@H](N)CS4(=O)=O)o2)CC(F)(F)C1` (stereo partly drawn) [Example 183, (3R)-3-amino-7-[5-[5,5-difluoro-1-(2-methoxyethyl)-3-piperidyl]-1,3,4-oxadiazol-2-yl]-5-[[4-(4-methoxyphenyl)phenyl]methyl]-1,1-dioxo-2,3-dihydro-1λ^6,5-benzothiazepin-4-one], the “Emax proliferation (% activation)” value is listed as 156 % activation and the EC50 was 1.68 µM.

With `N[C@H]1CS(=O)(=O)c2ccc(-c3nnc(N4CCC(F)(F)CC4)o3)cc2N(Cc2ccc(-c3nc(C(F)(F)F)no3)cc2)C1=O` [Example 161, (3R)-3-amino-7-[5-(4,4-difluoro-1-piperidyl)-1,3,4-oxadiazol-2-yl]-1,1-dioxo-5-[[4-[3-(trifluoromethyl)-1,2,4-oxadiazol-5-yl]phenyl]methyl]-2,3-dihydro-1λ^6,5-benzothiazepin-4-one], the “Emax proliferation (% activation)” value is 178 % activation and the EC50 worked out at 0.327 µM.

As to `CC1(Nc2nnc(-c3ccc4c(c3)N(Cc3ccc(-c5noc(C(F)(F)F)n5)cc3)C(=O)[C@@H](N)CS4(=O)=O)o2)CC(F)(F)C1` [Example 72, (3R)-3-amino-7-[5-[(3,3-difluoro-1-methyl-cyclobutyl)amino]-1,3,4-oxadiazol-2-yl]-1,1-dioxo-5-[[4-[5-(trifluoromethyl)-1,2,4-oxadiazol-3-yl]phenyl]methyl]-2,3-dihydro-1λ^6,5-benzothiazepin-4-one], the “Emax proliferation (% activation)” value was 252 % activation and the EC50 stood at 1.65 µM.
